In patent publication US12479831B2, “Substituted N(-methyl-D3)pyridazine-3-carboxamide or M-(methyl-D3)-nicotinamide compounds as IL-12, IL-23 and/or IFNα modulators” (BRISTOL-MYERS SQUIBB COMPANY, priority 2020, dated 2025):

These molecules were tested on IFNα-Induced STAT Phosphorylation in Human Whole Blood (assay: IFNα-Induced STAT Phosphorylation in Human Whole Blood). Conditions: 1 h incubation with compound, 1000 U/mL recombinant human IFNα A/D for 15 min, pSTAT5 (pY694) median fluorescence intensity in CD3 positive population, read-out: hWB IC50.
Format: cell-based
Experimental: IFNα-Induced STAT Phosphorylation in Human Whole Blood
After an hour long incubation with compound, human whole blood (drawn with either EDTA or ACD-A as anti-coagulant) was stimulated with 1000 U/mL recombinant human IFNα A/D (R&D Systems 11200-2) for 15 min. The stimulation was stopped by adding Fix/Lyse buffer (BD 558049). Cells were stained with a CD3 FITC antibody (BD 555916), washed, and permeabilized on ice using Perm III buffer (BD 558050). […] The amount of pSTAT5 expression was quantitated by median fluorescence intensity after gating on the CD3 positive population.
IFNα-Induced STAT Phosphorylation in Human Whole Blood Inhibition Data

SMILES | IC50
[2H]C([2H])([2H])NC(=O)c1nnc(Nc2cc(C(C)(C)O)ccn2)cc1Nc1cccc(-c2ncc(F)cn2)c1OC [Example 102, 4-((3-(5-fluoropyrimidin-2-yl)-2-methoxyphenyl)amino)-6-((4-(2-hydroxypropan-2-yl)pyridin-2-yl)amino)-N-(methyl-d3)pyridazine-3-carboxamide] | 212 nM
[2H]C([2H])([2H])NC(=O)c1nnc(NC(=O)C2CC2)cc1Nc1cccc(-c2ncc(N3CCOCC3=O)cn2)c1OC [Example 117] | 111 nM
[2H]C([2H])([2H])NC(=O)c1nnc(NC(=O)C2CC2)cc1Nc1cccc(-c2ncc(F)cc2C#N)c1OC [Example 114] | 242 nM
[2H]C([2H])([2H])NC(=O)c1nnc(Nc2cn(CC)nn2)cc1Nc1cc(F)cc(-c2ncccn2)c1OC [Example 92, 6-((1-ethyl-1H-1,2,3-triazol-4-yl)amino)-4-((5-fluoro-2-methoxy-3-(pyrimidin-2-yl)phenyl)amino)-N-(methyl-d3)pyridazine-3-carboxamide] | 136 nM
[2H]C([2H])([2H])NC(=O)c1cnc(Nc2ccn(C3CC3)n2)cc1Nc1cccc(-c2ncccn2)c1OC [Example 69, 6-((1-cyclopropyl-1H-pyrazol-3-yl)amino)-4-((2-methoxy-3-(pyrimidin-2-yl)phenyl)amino)-N-(methyl-d3)nicotinamide] | 56 nM
[2H]C([2H])([2H])NC(=O)c1nnc(Nc2cnc(C(C)(C)O)cn2)cc1Nc1cccc(-c2ncc(F)cn2)c1OC [Example 101, 4-((3-(5-fluoropyrimidin-2-yl)-2-methoxyphenyl)amino)-6-((5-(2-hydroxypropan-2-yl)pyrazin-2-yl)amino)-N-(methyl-d3)pyridazine-3-carboxamide] | 93 nM
[2H]C([2H])([2H])NC(=O)c1cnc(NC(=O)C2CC2)cc1Nc1cccc(-c2cnc(-n3cncn3)cn2)c1OC [Example 60, 4-((3-(5-(1H-1,2,4-triazol-1-yl)pyrazin-2-yl)-2-methoxyphenyl)amino)-6-(cyclopropanecarboxamido)-N-(methyl-d3)nicotinamide] | 1040 nM
[2H]C([2H])([2H])NC(=O)c1nnc(NC(=O)C2CC2)cc1Nc1cccc(-c2cnc(N3CCN(C(C)=O)CC3)cn2)c1OC [Example 59, 4-((3-(5-(4-acetylpiperazin-1-yl)pyrazin-2-yl)-2-methoxyphenyl)amino)-6-(cyclopropanecarboxamido)-N-(methyl-d3)pyridazine-3-carboxamide] | 121 nM
[2H]C([2H])([2H])NC(=O)c1nnc(NC(=O)C2CC2)cc1Nc1cccc(-c2cnc(C3(O)COC3)cn2)c1OC [Example 33, 6-(cyclopropanecarboxamido)-4-((3-(5-(3-hydroxyoxetan-3-yl)pyrazin-2-yl)-2-methoxyphenyl)amino)-N-(methyl-d3)pyridazine-3-carboxamide] | 43 nM
[2H]C([2H])([2H])NC(=O)c1nnc(NC(=O)C2CC2)cc1Nc1cccc(-c2cnc(N3CCN(C)CC3)cn2)c1OC [Example 58, 6-(cyclopropanecarboxamido)-4-((2-methoxy-3-(5-(4-methylpiperazin-1-yl)pyrazin-2-yl)phenyl)amino)-N-(methyl-d3)pyridazine-3-carboxamide] | 267 nM
[2H]C([2H])([2H])NC(=O)c1nnc(NC(=O)C2CC2)cc1Nc1cccc(-c2ccc(C(C)(O)CC)nn2)c1OC (stereo not shown) [Example 23, 6-(cyclopropanecarboxamido)-4-((3-(6-(2-hydroxybutan-2-yl)pyridazin-3-yl)-2-methoxyphenyl)amino)-N-(methyl-d3)pyridazine-3-carboxamide] | 32 nM
[2H]C([2H])([2H])NC(=O)c1cnc(Nc2cc(C#N)n(C)n2)cc1Nc1cccc(-c2ncc(F)cn2)c1OC [Example 62, 6-((5-cyano-1-methyl-1H-pyrazol-3-yl)amino)-4-((3-(5-fluoropyrimidin-2-yl)-2-methoxyphenyl)amino)-N-(methyl-d3)nicotinamide] | 109 nM
[2H]C([2H])([2H])NC(=O)c1nnc(NC(=O)C2CC2)cc1Nc1cccc(-c2ncc(N3CCN(C)C3=O)cn2)c1OC [Example 116] | 73 nM
[2H]C([2H])([2H])NC(=O)c1nnc(NC(=O)C2CC2)cc1Nc1cc(F)cc(-c2cnc(C(C)O)cn2)c1OC (stereo not shown) [Example 24, 6-(cyclopropanecarboxamido)-4-((5-fluoro-3-(5-(1-hydroxyethyl)pyrazin-2-yl)-2-methoxyphenyl)amino)-N-(methyl-d3)pyridazine-3-carboxamide] | 167 nM
[2H]C([2H])([2H])NC(=O)c1nnc(Nc2cn(C)nn2)cc1Nc1cccc(-c2ncc(F)cn2)c1OC [Example 91, 4-((3-(5-fluoropyrimidin-2-yl)-2-methoxyphenyl)amino)-N-(methyl-d3)-6-((1-methyl-1H-1,2,3-triazol-4-yl)amino)pyridazine-3-carboxamide] | 167 nM
[2H]C([2H])([2H])NC(=O)c1nnc(Nc2cc(C(C)(C)O)n(C)n2)cc1Nc1cc(F)cc(-c2ncc(F)cn2)c1OC [Example 83, 4-((5-fluoro-3-(5-fluoropyrimidin-2-yl)-2-methoxyphenyl)amino)-6-((5-(2-hydroxypropan-2-yl)-1-methyl-1H-pyrazol-3-yl)amino)-N-(methyl-d3)pyridazine-3-carboxamide] | 77 nM
[2H]C([2H])([2H])NC(=O)c1nnc(Nc2ccn(C3CC3)n2)cc1Nc1cccc(-c2ncc(F)cn2)c1OC [Example 78, 6-((1-cyclopropyl-1H-pyrazol-3-yl)amino)-4-((3-(5-fluoropyrimidin-2-yl)-2-methoxyphenyl)amino)-N-(methyl-d3)pyridazine-3-carboxamide] | 192 nM
[2H]C([2H])([2H])NC(=O)c1cnc(Nc2ccn(CC)n2)cc1Nc1cccc(-c2ncc(F)cn2)c1OC [Example 67, 6-((1-ethyl-1H-pyrazol-3-yl)amino)-4-((3-(5-fluoropyrimidin-2-yl)-2-methoxyphenyl)amino)-N-(methyl-d3)nicotinamide] | 87 nM
[2H]C([2H])([2H])NC(=O)c1nnc(Nc2cc3ccccc3nn2)cc1Nc1cccc(-c2ncc(F)cn2)c1OC [Example 100, 6-(cinnolin-3-ylamino)-4-((3-(5-fluoropyrimidin-2-yl)-2-methoxyphenyl)amino)-N-(methyl-d3)pyridazine-3-carboxamide] | 165 nM
[2H]C([2H])([2H])NC(=O)c1nnc(Nc2cc(C(C)(C)O)ccn2)cc1Nc1cc(F)cc(-c2ncccn2)c1OC [Example 105, 4-((5-fluoro-2-methoxy-3-(pyrimidin-2-yl)phenyl)amino)-6-((4-(2-hydroxypropan-2-yl)pyridin-2-yl)amino)-N-(methyl-d3)pyridazine-3-carboxamide] | 172 nM
[2H]C([2H])([2H])NC(=O)c1nnc(NC(=O)C2CC2)cc1Nc1cccc(-c2cnc(C(=O)N3CCC3)cn2)c1OC [Example 40, 4-((3-(5-(azetidine-1-carbonyl)pyrazin-2-yl)-2-methoxyphenyl)amino)-6-(cyclopropanecarboxamido)-N-(methyl-d3)pyridazine-3-carboxamide] | 360 nM
[2H]C([2H])([2H])NC(=O)c1nnc(Nc2cc(C(=O)N(C)C)n(C)n2)cc1Nc1cccc(-c2ncc(F)cn2)c1OC [Example 85, 6-((5-(dimethylcarbamoyl)-1-methyl-1H-pyrazol-3-yl)amino)-4-((3-(5-fluoropyrimidin-2-yl)-2-methoxyphenyl)amino)-N-(methyl-d3)pyridazine-3-carboxamide] | 43 nM
[2H]C([2H])([2H])NC(=O)c1nnc(Nc2cn(CC)nn2)cc1Nc1cccc(-c2ncc(F)cn2)c1OC [Example 89, 6-((1-ethyl-1H-1,2,3-triazol-4-yl)amino)-4-((3-(5-fluoropyrimidin-2-yl)-2-methoxyphenyl)amino)-N-(methyl-d3)pyridazine-3-carboxamide] | 250 nM
[2H]C([2H])([2H])NC(=O)c1nnc(Nc2ccc(C(C)(C)O)cn2)cc1Nc1cccc(-c2ncc(F)cn2)c1OC [Example 103, 4-((3-(5-fluoropyrimidin-2-yl)-2-methoxyphenyl)amino)-6-((5-(2-hydroxypropan-2-yl)pyridin-2-yl)amino)-N-(methyl-d3)pyridazine-3-carboxamide] | 79 nM
[2H]C([2H])([2H])NC(=O)c1nnc(NC(=O)C2CC2)cc1Nc1cccc(-c2ncc(C(=O)N3CCCC3)cn2)c1OC [Example 47, 6-(cyclopropanecarboxamido)-4-((2-methoxy-3-(5-(pyrrolidine-1-carbonyl)pyrimidin-2-yl)phenyl)amino)-N-(methyl-d3)pyridazine-3-carboxamide] | 126 nM
[2H]C([2H])([2H])NC(=O)c1cnc(Nc2ccccn2)cc1Nc1cccc(-c2ncc(F)cn2)c1OC [Example 70, 4-((3-(5-fluoropyrimidin-2-yl)-2-methoxyphenyl)amino)-N-(methyl-d3)-6-(pyridin-2-ylamino)nicotinamide] | 90 nM
[2H]C([2H])([2H])NC(=O)c1nnc(Nc2cc3n(n2)CCN(C2CC2)C3=O)cc1Nc1cccc(-c2ncc(F)cn2)c1OC [Example 109, 6-((5-cyclopropyl-4-oxo-4,5,6,7-tetrahydropyrazolo[1,5-a]pyrazin-2-yl)amino)-4-((3-(5-fluoropyrimidin-2-yl)-2-methoxyphenyl)amino)-N-(methyl-d3)pyridazine-3-carboxamide] | 262 nM
[2H]C([2H])([2H])NC(=O)c1nnc(NC(=O)C2CC2)cc1Nc1cccc(-c2ncc(N3CCOC3=O)cn2)c1OC [Example 113] | 36 nM
